How the values were obtained:
tensin3 IDR (mCh-IDR) = assay: mitochondrial pulldown, talin constructs with mCh-IDR; assay type: binding, Homo sapiens; conditions: TLN1-E1770A-cBAK vs TLN1-WT-cBAK; HEK293T; three replicates
Description: Mitochondrial isolation from HEK293T cells was performed after 24 h of transient expression using a combined method of Qproteome Mitochondria Isolation Kit (QIAGEN) and MACS Mitochondria Isolation Kit (Miltenyi). Cells were collected in ice-cold PBS and aliquoted for the preparation of the whole-cell lysate (wcl) fraction (30%) and the mitochondrial fraction (70%). Cell lysis and homogenization of the mitochondrial fraction were performed according to the manufacturer’s instructions (QIAGEN). Magnetic anti-TOM22 microbeads (Miltenyi) were used to label mitochondria in the homogenized mitochondrial fraction for 1 h at 4°C. The labeled mitochondria were separated from a magnetic column before elution with ice-cold separation buffer (Miltenyi). The eluted mitochondria were washed and centrifuged according to the Miltenyi’s instructions. RIPA buffer (ChromoTek) was used for protein extraction from the wcl and purified mitochondria. Samples were stored at −80°C prior to western blotting.
Samples were mixed with sample buffer (4X, Invitrogen) supplemented with reducing agent (10X, Invitrogen). […] Signals were detected using goat anti-mouse IgG conjugated to IRDye 680RD (1:15,000, ab216776; Abcam) and goat anti-rabbit IgG conjugated to IRDye 800CW (1:15000, ab216773; Abcam) secondary antibodies. […] Western blot analysis and quantification were performed using ImageJ software.

HFF cells = assay: endogenous tensin3 condensates on soft vs stiff PDMS, HFF cells; assay type: cell-based, human; conditions: 1.5 kPa vs 28 kPa FN-coated PDMS, overnight; n = 33 and 40 cells
Description: Imaging dishes equipped with 40 µm-thick PDMS substrates (1.5 and 28 kPa) were purchased from ibidi. PDMS dishes were coated with 30 μg/ml FN for 1 h, followed by three washes with PBS. Dishes were incubated with DMEM for 10 min to equilibrate before cells were plated and incubated overnight at 37°C.
To establish a correlation between tensin3 expression and condensation formation, a maximum intensity Z-projection was performed on Z-stack images of NIH3T3 cells (step depth 0.2 μm). The integrated fluorescence intensity was measured by normalizing the mean pixel intensity of each cell to the average of all values in cells expressing mCh-TNS3. To measure the condensate coverage in NIH3T3 cells, the images were background-subtracted (rolling ball) and then thresholded. This was followed by the Analyse Particles function in FIJI/ImageJ to select round condensate structures (circularity 0.7–1.0) ([Bussi et al., 2023]; [Dumelie et al., 2024]) with a size larger than 0.1 μm^2. The same settings were applied to quantify the number of condensates in NIH3T3 and HFF cells.

Row | Molecule | increase in IDR pulldown vs WT talin (tensin3 IDR (mCh-IDR)) | increase in tensin3 spheres on soft vs stiff substrate (HFF cells)
1 | TLN1-E1770A-cBAK: constitutively active talin1 construct | 50% | –
2 | endogenous tensin3: endogenous tensin3 in primary human foreskin fibroblasts (protein, UniProt Q68CZ2 1-1445, looked up) Tensin-3: MEEGHGLDLTYITERIIAVSFPAGCSEESYLHNLQEVTRMLKSKHGDNYLVLNLSEKRYDLTKLNPKIMDVGWPELHAPPLDKMCTICKAQESWLNSNLQHVVVIHCRGGKGRIGVVISSYMHFTNVSASADQALDRFAMKKFYDDKVSALMQPSQKRYVQFLSGLLSGSVKMNASPLFLHFVILHGTPNFDTGGVCRPFLKLYQAMQPVYTSGIYNVGPENPSRICIVIEPAQLLKGDVMVKCYHKKYRSATRDVIFRLQFHTGAVQGYGLVFGKEDLDNASKDDRFPDYGKVELVFSATPEKIQGSEHLYNDHGVIVDYNTTDPLIRWDSYENLSADGEVLHTQGPVDGSLYAKVRKKSSSDPGIPGGPQAIPATNSPDHSDHTLSVSSDSGHSTASARTDKTEERLAPGTRRGLSAQEKAELDQLLSGFGLEDPGSSLKEMTDARSKYSGTRHVVPAQVHVNGDAALKDRETDILDDEMPHHDLHSVDSLGTLSSSEGPQSAHLGPFTCHKSSQNSLLSDGFGSNVGEDPQGTLVPDLGLGMDGPYERERTFGSREPKQPQPLLRKPSVSAQMQAYGQSSYSTQTWVRQQQMVVAHQYSFAPDGEARLVSRCPADNPGLVQAQPRVPLTPTRGTSSRVAVQRGVGSGPHPPDTQQPSPSKAFKPRFPGDQVVNGAGPELSTGPSPGSPTLDIDQSIEQLNRLILELDPTFEPIPTHMNALGSQANGSVSPDSVGGGLRASSRLPDTGEGPSRATGRQGSSAEQPLGGRLRKLSLGQYDNDAGGQLPFSKCAWGKAGVDYAPNLPPFPSPADVKETMTPGYPQDLDIIDGRILSSKESMCSTPAFPVSPETPYVKTALRHPPFSPPEPPLSSPASQHKGGREPRSCPETLTHAVGMSESPIGPKSTMLRADASSTPSFQQAFASSCTISSNGPGQRRESSSSAERQWVESSPKPMVSLLGSGRPTGSPLSAEFSGTRKDSPVLSCFPPSELQAPFHSHELSLAEPPDSLAPPSSQAFLGFGTAPVGSGLPPEEDLGALLANSHGASPTPSIPLTATGAADNGFLSHNFLTVAPGHSSHHSPGLQGQGVTLPGQPPLPEKKRASEGDRSLGSVSPSSSGFSSPHSGSTISIPFPNVLPDFSKASEAASPLPDSPGDKLVIVKFVQDTSKFWYKADISREQAIAMLKDKEPGSFIVRDSHSFRGAYGLAMKVATPPPSVLQLNKKAGDLANELVRHFLIECTPKGVRLKGCSNEPYFGSLTALVCQHSITPLALPCKLLIPERDPLEEIAESSPQTAANSAAELLKQGAACNVWYLNSVEMESLTGHQAIQKALSITLVQEPPPVSTVVHFKVSAQGITLTDNQRKLFFRRHYPVNSVIFCALDPQDRKWIKDGPSSKVFGFVARKQGSATDNVCHLFAEHDPEQPASAIVNFVSKVMIGSPKKV | – | 3.6 fold

Reference: article PMC12637021, “Talin–tensin3 interactions regulate fibrillar adhesion formation and tensin3 phase separation” (The Journal of Cell Biology, 2025)
